Laboratory results reported in US9302999B2, “Substituted triazoles as herbicides” (E. I. DU PONT DE NEMOURS AND COMPANY, priority 2012, dated 2016).

Tests used:
Assay type in all cases: in vivo
[1] = test system: canarygrass (Phalaris minor); assay: Test C postemergence: canarygrass
Source text: At the same time, plants selected from these crop and weed species and also barley (winter barley, Hordeum vulgare), canarygrass (Phalaris minor), chickweed (common chickweed, Stellaria media) windgrass (Apera spica-venti) and deadnettle (henbit deadnettle, Lamium amplexicaule) were planted in pots containing Redi-Earth® planting medium (Scotts Company, 14111 Scottslawn Road, Marysville, Ohio 43041) comprising spaghnum peat moss, vermiculite, wetting agent and starter nutrients and treated with postemergence applications of test chemicals formulated in the same manner. Plants ranged in height from 2 to 18 cm (1- to 4-leaf stage) for postemergence treatments.
(§1) Treated plants and controls were maintained in a greenhouse for 13 to 15 days, after which time all species were compared to controls and visually evaluated. Plant response ratings, summarized in Table C, are based on a scale of 0 to 100 where 0 is no effect and 100 is complete control. A dash (-) response means no test result.

[2] = test system: canarygrass (Phalaris minor); assay: Test D pre-/postemergence: canarygrass
Source text: (§2) Seeds of plant species selected from bluegrass (annual bluegrass, Poa annua), blackgrass (Alopecurus myosuroides), canarygrass (Phalaris minor), chickweed (common chickweed, Stellaria media), galium (catchweed bedstraw, Galium aparine), bromegrass, downy (downy bromegrass, Bromus tectorum), field poppy (Papaver rhoeas), field violet (Viola arvensis), foxtail, green (green foxtail, Setaria viridis), deadnettle (henbit deadnettle, Lamium amplexicaule), ryegrass, Italian (Italian ryegrass, Lolium multiflorum), kochia (Kochia scoparia), lambsquarters (Chenopodium album), oilseed rape (Brassica napus), pigweed (Amaranthus retroflexus), Russian thistle (Salsola iberica), chamomile (scentless chamomile, Matricaria inodora), speedwell (bird's-eye speedwell, Veronica persica), barley, spring (spring barley, Hordeum vulgare), wheat, spring (spring wheat, Triticum aestivum), buckwheat, wild (wild buckwheat, Polygonum convolvulus), mustard, wild (wild mustard, Sinapis arvensis), oat, wild (wild oat, Avena fatua), radish, wild (wild radish, Raphanus raphanistrum), windgrass (Apera spica-venti), barley, winter (winter barley, Hordeum vulgare), and wheat, winter (winter wheat, Triticum aestivum) were planted into a silt loam soil and treated preemergence with test chemicals formulated in a non-phytotoxic solvent mixture which included a surfactant. At the same time, these same crop and weed species were planted in pots containing the planting medium comprising spaghnum peat moss, vermiculite, wetting agent and starter nutrients and treated with postemergence applications of the test chemicals formulated in the same manner. Plants ranged in height from 2 to 18 cm (1- to 4-leaf stage).
as §1, with “controlled growth environment” for “greenhouse”, “14” for “13”, “21 days” for “15 days,”, “D,” for “C,”

[3] = test system: field poppy (Papaver rhoeas); assay: Test D pre-/postemergence: field poppy
Source text: as §2
as §1, with “controlled growth environment” for “greenhouse”, “14” for “13”, “21 days” for “15 days,”, “D,” for “C,”

[4] = test system: deadnettle (henbit deadnettle, Lamium amplexicaule); assay: Test D pre-/postemergence: deadnettle
In short: (§3)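 Visual 0–100 rating versus untreated controls (0 no effect, 100 complete control), taken 14 to 21 days after treatment in a controlled growth environment. Preemergence: silt loam soil. Postemergence: peat moss/vermiculite medium, plants 2 to 18 cm, 1- to 4-leaf stage. Solvent mixture with surfactant.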

[5] = test system: wheat, spring (spring wheat, Triticum aestivum); assay: Test D pre-/postemergence: wheat, spring
Source text: as §2
as §1, with “controlled growth environment” for “greenhouse”, “14” for “13”, “21 days” for “15 days,”, “D,” for “C,”

[6] = test system: windgrass (Apera spica-venti); assay: Test D pre-/postemergence: windgrass
In short: as §3

[7] = 31 g ai/ha, scale 0 to 100 (0 no effect, 100 complete control)
[8] = 62 g ai/ha, scale 0 to 100 (0 no effect, 100 complete control)
[9] = 125 g ai/ha, scale 0 to 100, 0 no effect, 100 complete control
[10] = Postemergence, 31 g ai/ha, scale 0 to 100 (0 no effect, 100 complete control)
[11] = Postemergence, 62 g ai/ha, scale 0 to 100 (0 no effect, 100 complete control)
[12] = Postemergence, 125 g ai/ha, scale 0 to 100, 0 no effect, 100 complete control
[13] = Postemergence, 250 g ai/ha, scale 0 to 100 (0 no effect, 100 complete control)
[14] = Postemergence, 16 g ai/ha, scale 0 to 100
[15] = Preemergence, 16 g ai/ha, scale 0 to 100 (0 no effect, 100 complete control)
[16] = Preemergence, 31 g ai/ha, scale 0 to 100 (0 no effect, 100 complete control)
[17] = Preemergence, 62 g ai/ha, scale 0 to 100
[18] = Preemergence, 125 g ai/ha, scale 0 to 100
[19] = Preemergence, 250 g ai/ha, scale 0 to 100
[20] = Postemergence, 31 g ai/ha, scale 0 to 100
[21] = Postemergence, 8 g ai/ha, scale 0 to 100

CCOc1nn(-c2ccc(F)cc2)nc1Cc1ccnc(C(F)F)c1 [Compound 195]
Plant response rating, Canarygrass [1, 7]: 40
Plant response rating, Canarygrass [1, 8]: 60
Plant response rating, Canarygrass [1, 9]: 85
Plant response rating, Canarygrass ([1]; 250 g ai/ha, scale 0 to 100): 100
Plant response rating: Canarygrass [2, 10]: 10
Plant response rating: Canarygrass [2, 11]: 20
Plant response rating: Canarygrass [2, 12]: 40
Plant response rating: Canarygrass [2, 13]: 55
Plant response rating, Canarygrass [2, 14]: 10
Plant response rating, Canarygrass [2, 15]: 0
Plant response rating, Canarygrass [2, 16]: 25
Plant response rating, Canarygrass [2, 17]: 40
Plant response rating, Canarygrass [2, 18]: 80
Plant response rating, Canarygrass [2, 19]: 95
Plant response rating: Field Poppy [3, 10]: 75
Plant response rating: Field Poppy [3, 11]: 95
Plant response rating: Field Poppy [3, 12]: 100
Plant response rating: Field Poppy [3, 13]: 100
Plant response rating, Field Poppy [3, 14]: 35
Plant response rating, Field Poppy [3, 15]: 30
Plant response rating, Field Poppy [3, 16]: 40
Plant response rating, Field Poppy [3, 17]: 60
Plant response rating, Field Poppy [3, 18]: 100
Plant response rating, Field Poppy [3, 19]: 100
Plant response rating: Deadnettle [4, 10]: 65
Plant response rating: Deadnettle [4, 11]: 75
Plant response rating: Deadnettle [4, 12]: 75
Plant response rating: Deadnettle [4, 13]: 90
Plant response rating, Deadnettle [4, 14]: 60
Plant response rating, Deadnettle [4, 15]: 60
Plant response rating, Deadnettle [4, 16]: 60
Plant response rating, Deadnettle [4, 17]: 60
Plant response rating, Deadnettle [4, 18]: 100
Plant response rating, Deadnettle [4, 19]: 100
Plant response rating: Wheat, Spring [5, 10]: 10
Plant response rating: Wheat, Spring [5, 11]: 20
Plant response rating: Wheat, Spring [5, 12]: 25
Plant response rating: Wheat, Spring [5, 13]: 35
Plant response rating, Wheat, Spring [5, 14]: 5
Plant response rating, Wheat, Spring [5, 15]: 0
Plant response rating, Wheat, Spring [5, 16]: 0
Plant response rating, Wheat, Spring [5, 17]: 0
Plant response rating, Wheat, Spring [5, 18]: 0
Plant response rating, Wheat, Spring [5, 19]: 0
Plant response rating: Windgrass [6, 11]: 30
Plant response rating: Windgrass [6, 12]: 70
Plant response rating: Windgrass [6, 13]: 80
Plant response rating, Windgrass [6, 14]: 10
Plant response rating, Windgrass [6, 20]: 15
Plant response rating, Windgrass [6, 15]: 25
Plant response rating, Windgrass [6, 16]: 40
Plant response rating, Windgrass [6, 17]: 75
Plant response rating, Windgrass [6, 18]: 100
Plant response rating, Windgrass [6, 19]: 100

Cc1nn(-c2ccc(F)c(F)c2)nc1Oc1ccnc(C(F)(F)F)c1 [Compound 145]
Plant response rating, Canarygrass [1, 7]: 15
Plant response rating, Canarygrass [1, 8]: 40
Plant response rating, Canarygrass [1, 9]: 50
Plant response rating, Canarygrass ([1]; 250 g ai/ha, scale 0 to 100): 90
Plant response rating: Canarygrass [2, 10]: 35
Plant response rating: Canarygrass [2, 11]: 35
Plant response rating: Canarygrass [2, 12]: 60
Plant response rating, Canarygrass [2, 21]: 20
Plant response rating, Canarygrass [2, 14]: 30
Plant response rating: Field Poppy [3, 10]: 100
Plant response rating: Field Poppy [3, 11]: 100
Plant response rating: Field Poppy [3, 12]: 100
Plant response rating, Field Poppy [3, 21]: 25
Plant response rating, Field Poppy [3, 14]: 75
Plant response rating: Deadnettle [4, 10]: 70
Plant response rating: Deadnettle [4, 11]: 90
Plant response rating: Deadnettle [4, 12]: 100
Plant response rating, Deadnettle [4, 21]: 0
Plant response rating, Deadnettle [4, 14]: 50
Plant response rating: Wheat, Spring [5, 10]: 10
Plant response rating: Wheat, Spring [5, 11]: 20
Plant response rating: Wheat, Spring [5, 12]: 25
Plant response rating, Wheat, Spring [5, 21]: 5
Plant response rating, Wheat, Spring [5, 14]: 5
Plant response rating: Windgrass [6, 11]: 60
Plant response rating: Windgrass [6, 12]: 80
Plant response rating, Windgrass [6, 21]: 5
Plant response rating, Windgrass [6, 14]: 10
Plant response rating, Windgrass [6, 20]: 35

Cc1nn(-c2ccnc(C(F)(F)F)c2)nc1Cc1ccnc(C(F)(F)F)c1 [Compound 137]
Plant response rating, Canarygrass [1, 7]: 45
Plant response rating, Canarygrass [1, 8]: 60
Plant response rating, Canarygrass [1, 9]: 70
Plant response rating, Canarygrass ([1]; 250 g ai/ha, scale 0 to 100): 75
Plant response rating: Canarygrass [2, 10]: 20
Plant response rating: Canarygrass [2, 11]: 30
Plant response rating: Canarygrass [2, 12]: 50
Plant response rating: Canarygrass [2, 13]: 75
Plant response rating, Canarygrass [2, 14]: 10
Plant response rating: Field Poppy [3, 10]: 40
Plant response rating: Field Poppy [3, 11]: 100
Plant response rating: Field Poppy [3, 12]: 100
Plant response rating: Field Poppy [3, 13]: 100
Plant response rating, Field Poppy [3, 14]: 30
Plant response rating: Deadnettle [4, 10]: 40
Plant response rating: Deadnettle [4, 11]: 70
Plant response rating: Deadnettle [4, 12]: 80
Plant response rating: Deadnettle [4, 13]: 85
Plant response rating, Deadnettle [4, 14]: 20
Plant response rating: Wheat, Spring [5, 10]: 5
Plant response rating: Wheat, Spring [5, 11]: 10
Plant response rating: Wheat, Spring [5, 12]: 20
Plant response rating: Wheat, Spring [5, 13]: 25
Plant response rating, Wheat, Spring [5, 14]: 0
Plant response rating: Windgrass [6, 11]: 40
Plant response rating: Windgrass [6, 12]: 50
Plant response rating: Windgrass [6, 13]: 80
Plant response rating, Windgrass [6, 14]: 10
Plant response rating, Windgrass [6, 20]: 20
